Reference: patent publication US8106236B2, “Triaryl compounds and derivates thereof” (Ortho-McNeil Pharmaceutical, Inc., priority 2006, dated 2012)

biological target: γ-secretase (Homo sapiens, UniProt P49768); assay: Screening for γ-secretase-modulating activity, Aβ42 in SKNBE2 cells carrying APP 695 wild type; type: cell-based; settings: read-out: WTAPP SKNBE2 Aβ 42% Inhibition at 3 μM
Experimental: Screening of the Compounds of the Invention for γ-Secretase-Modulating Activity
Cells were grown to near confluency.

Row | inhibition at 3 µM | Compound
1 | 53% | CC(C)CC(C(=O)O)c1cc(-c2ccc(C(F)(F)F)cc2)cc(-c2ccc(F)cc2F)c1 (centres unmarked) [Compound 2, 2-(2,4-Difluoro-4″-trifluoromethyl-[1,1′;3′,1″]terphenyl-5′-yl)-4-methyl-pentanoic acid]
2 | 65% | CC(C)CC(C(=O)O)c1cc(-c2ccc(C(F)(F)F)cc2)cc(-c2ccccc2C(F)(F)F)c1 (centres unmarked) [Compound 6, 2-(2,4″-Bis-trifluoromethyl-[1,1′;3′,1″]terphenyl-5′-yl)-4-methyl-pentanoic acid]
3 | -1% | CC(C)CC(C(=O)O)c1cc(-c2ccc(C(F)(F)F)cc2)cc(-c2ccccc2F)c1 (centres unmarked) [Compound 8, 2-(2-Fluoro-4″-trifluoromethyl-[1,1′;3′,1″]terphenyl-5′-yl)-4-methyl-pentanoic acid]
4 | 68% | Cc1ccc(-c2cc(-c3ccc(C(F)(F)F)cc3)cc(C(CC(C)C)C(=O)O)c2)cc1 (centres unmarked) [Compound 11, 4-Methyl-2-(4-methyl-4″-trifluoromethyl-[1,1′;3′,1″]terphenyl-5′-yl)-pentanoic acid]
5 | 86% | CC(C)CC(C(=O)O)c1cc(-c2ccc(C(F)(F)F)cc2)cc(-c2cccc(C(F)(F)F)c2)c1 (centres unmarked) [Compound 12, 2-(3,4″-Bis-trifluoromethyl-[1,1′;3′,1″]terphenyl-5′-yl)-4-methyl-pentanoic acid]
6 | 46% | CC(C)CC(C(=O)O)c1cc(-c2ccc(C(F)(F)F)cc2)cc(-c2ccc(S(C)(=O)=O)cc2)c1 (centres unmarked) [Compound 21, 2-(4-Methanesulfonyl-4″-trifluoromethyl-[1,1′;3′,1″]terphenyl-5′-yl)-4-methyl-pentanoic acid]
7 | 84% | CC(C)CC(C(=O)O)c1cc(-c2ccc(C(F)(F)F)cc2)cc(-c2cc(Cl)ccc2Cl)c1 (centres unmarked) [Compound 23, 2-(2,5-Dichloro-4″-trifluoromethyl-[1,1′;3′,1″]terphenyl-5′-yl)-4-methyl-pentanoic acid]
8 | 53% | COc1ccc(-c2cc(-c3ccc(C(F)(F)F)cc3)cc(C(CC(C)C)C(=O)O)c2)cc1 (centres unmarked) [Compound 24, 2-(4-Methoxy-4″-trifluoromethyl-[1,1′;3′,1″]terphenyl-5′-yl)-4-methyl-pentanoic acid]
9 | 82% | C=C(C)CC(C(=O)O)c1cc(-c2ccc(C(F)(F)F)cc2)cc(-c2ccc(C(F)(F)F)cc2)c1 (centres unmarked) [Compound 25, 2-(4,4″-Bis-trifluoromethyl-[1,1′;3′,1″]terphenyl-5′-yl)-4-methyl-pent-4-enoic acid]
10 | 80% | CC(C)CC(C(=O)O)c1cc(-c2cc(F)cc(F)c2)cc(-c2cc(F)cc(C(F)(F)F)c2)c1 (centres unmarked) [Compound 32, 4-Methyl-2-(3,5,3″-trifluoro-5″-trifluoromethyl-[1,1′;3′,1″]terphenyl-5′-yl)-pentanoic acid]
11 | 73% | CC(C)CC(C(=O)O)c1cc(-c2cccc(C#N)c2)cc(-c2cc(C(F)(F)F)cc(C(F)(F)F)c2)c1 (centres unmarked) [Compound 34, 2-(3-Cyano-3″,5″-bis-trifluoromethyl-[1,1′;3′,1″]terphenyl-5′-yl)-4-methyl pentanoic acid]
12 | 0% | CC(C)CC(C(=O)O)c1cc(-c2ccc(C(F)(F)F)cc2)cc(-c2cc(F)cc(C#N)c2)c1 (centres unmarked) [Compound 36, 2-(5-Cyano-3-fluoro-4″-trifluoromethyl-[1,1′;3′,1″]terphenyl-5′-yl)-4-methyl-pentanoic acid]
13 | 84% | CC(C)CC(C(=O)O)c1cc(-c2ccc(C#N)cc2)cc(-c2cc(C(F)(F)F)cc(C(F)(F)F)c2)c1 (centres unmarked) [Compound 37, 2-(4-Cyano-3″,5″-bis-trifluoromethyl-[1,1′;3′,1″]terphenyl-5′-yl)-4-methyl pentanoic acid]
14 | 53% | CC(C)CC(C(=O)O)c1cc(-c2cc(F)cc(F)c2)cc(-c2cc(F)cc(F)c2)c1 (centres unmarked) [Compound 38, 4-Methyl-2-(3,5,3″,5″-tetrafluoro-[1,1′;3′,1″]terphenyl-5′-yl)-pentanoic acid]
15 | 18% | CC(=O)c1ccc(-c2cc(-c3ccc(C(F)(F)F)cc3)cc(C(CC(C)C)C(=O)O)c2)cc1 (centres unmarked) [Compound 48, 2-(4-Acetyl-4″-trifluoromethyl-[1,1′;3′,1″]terphenyl-5′-yl)-4-methyl-pentanoic acid]
16 | -17% | CC(C)CC(C(=O)O)c1cc(-c2ccc(C(F)(F)F)cc2)cc(-c2cccc(N(C)C)c2)c1 (centres unmarked) [Compound 49, 2-(3-Dimethylamino-4″-trifluoromethyl-[1,1′;3′,1″]terphenyl-5′-yl)-4-methyl-pentanoic acid]

system: Aβ42; assay: In vivo Aβ42 lowering, mouse; settings: oral dose 30 mpk at 4 hr time point, read-out: Mouse Efficacy % Lowering Aβ 42
From the text: (§1) To determine whether acute administration of an Aβ42 lowering agent would reduce Aβ42 levels in vivo, non-transgenic rodents, e.g. mice or rats can be used. Alternatively, two to three month old Tg2576 mice expressing APP695 containing the “Swedish” variant can be used or a transgenic mouse model developed by Dr. Fred Van Leuven (K.U.Leuven, Belgium) and co-workers, with neuron-specific expression of a clinical mutant of the human amyloid precursor protein [V717I] (Moechars et al., 1999 J. Biol. Chem. 274, 6483). […] Animals of this age have high levels of Aβ in the brain but no detectable Aβ deposition. Mice treated with the Aβ42 lowering agent will be examined and compared to those untreated or treated with vehicle and brain levels of soluble Aβ42 and total Aβ would be quantitated by standard techniques, for example, using ELISA. Treatment periods may vary from hours to days and will be adjusted based on the results of the Aβ42 lowering once a time course of onset of effect can be established.
(§2) A typical protocol for measuring Aβ42 lowering in vivo is shown but it is only one of many variations that could be used to optimize the levels of detectable Aβ. For example, aliquots of compounds can be dissolved in DMSO (volume equal to 1/10th of the final formulation volume), vortexed and further diluted (1:10) with a 10% (w/v) hydroxypropyl β cyclodextrin (HBC, Aldrich, Ref N° 33,260-7) solution in PBS, where after they are sonicated for 20 seconds.
(§3) Aβ42 lowering agents may be administered as a single oral dose given three to four hours before sacrifice and analysis or alternatively could be given over a course of days and the animals sacrificed three to four hours after the final dose is given.
(§4) Blood is collected at sacrifice. The blood collection is performed via a heart puncture during anesthesia with a mixture of Ketalar (Ketamin), Rompun (Xylazin 2%) and Atropin (2:1:1) and collected in EDTA treated collection tubes. Blood is centrifuged at 4000 g for 5 minutes at 4° C. and the plasma recovered for analysis.
(§5) The mice are anaesthetized with a mixture of Ketalar (Ketamin), Rompun (Xylazin 2%) and Atropin (2:1:1) and flushed trans-cardially with physiological serum at 4° C.
(§6) The brain is removed from the cranium and hindbrain and forebrain are separated with a cut in the coronal/frontal plane. The cerebellum is removed. The forebrain is divided evenly into left and right hemisphere by using a midline sagital cut.
(§7) One hemisphere is immediately immersed in liquid nitrogen and stored at −70° C. until homogenization for biochemical assays.
(§8) Brains are homogenized using a Potter, a glass tube (detergent free, 2 cm^3) and a mechanical homogenizer (650 rpm). A volume of 6.5×½ brain weight of freshly prepared 20 mM Tris/HCl buffer (pH 8.5) with Proteinase Inhibitors (1 tablet per 50 ml Tris/HCl buffer, Complete™, Roche, Mannheim, Germany) is used as homogenization buffer.
(§9) Samples are transferred from −70° C. into a sample holder with liquid nitrogen and each individual sample is pre-warmed by incubation on the bench for a few seconds prior to homogenization. The homogenates are collected in Beckman centrifuge tubes TLX and collected on ice prior to centrifugation. Between two samples, the Potter and the glass tube are rinsed carefully with distilled water without detergents and dried with absorption paper.
(§10) Samples are centrifuged in a pre-cooled ultracentrifuge (Beckman, Mannheim, Germany) for 1 hour and 20 minutes at 48000 rpm (135.000×g) at 4° C. The supernatant (soluble fraction containing secreted APP and amyloid peptides) is separated from the pellet (membrane fraction containing membrane-bound APP-fragments and plaque-associated amyloid peptides in case of aged mice).
(§11) Small reversed phase columns (C18-Sep-Pack Vac 3 cc cartridges, Waters, Mass., MA) are mounted on a vacuum system and washed with 80% acetonitrile in 0.1% Trifluoroacetic acid (A-TFA) followed with 0.1% TFA twice. […]

Row | Compound | inhibition in vivo at 30 mg/kg
17 | CC(C)CC(C(=O)O)c1cc(-c2ccc(C(C)C)cc2)cc(-c2ccc(C(F)(F)F)cc2)c1 (centres unmarked) [Compound 4, 2-(4-Isopropyl-4″-trifluoromethyl-[1,1′;3′,1″]terphenyl-5′-yl)-4-methyl-pentanoic acid] | 30%
18 | CC(C)CC(C(=O)O)c1cc(-c2ccc(C(F)(F)F)cc2)cc(-c2ccc(C(F)(F)F)cc2)c1 (centres unmarked) [Compound 5, 2-(4,4″-Bis-trifluoromethyl-[1,1′;3′,1″]terphenyl-5′-yl)-4-methyl-pentanoic acid] | 48%
19 | CC(C)CC(C(=O)O)c1cc(-c2ccc(C#N)cc2)cc(-c2ccc(C(F)(F)F)cc2)c1 (centres unmarked) [Compound 16, 2-(4-Cyano-4″-trifluoromethyl-[1,1′;3′,1″]terphenyl-5′-yl)-4-methyl-pentanoic acid] | 10%
20 | CC(C)C[C@H](C(=O)O)c1cc(-c2ccc(C(F)(F)F)cc2)cc(-c2cc(F)cc(F)c2)c1 [Compound 41, (S)-2-(3,5-Difluoro-4″-trifluoromethyl-[1,1′;3′,1″]terphenyl-5′-yl)-4-methyl-pentanoic acid] | 58%
21 | CC(C)C[C@@H](C(=O)O)c1cc(-c2ccc(C(F)(F)F)cc2)cc(-c2cc(F)cc(F)c2)c1 [Compound 42, (R)-2-(3,5-Difluoro-4″-trifluoromethyl-[1,1′;3′,1″]terphenyl-5′-yl)-4-methyl-pentanoic acid] | 48%
22 | CC(C)C[C@H](C(=O)O)c1cc(-c2ccc(C(F)(F)F)cc2)cc(-c2cc(C(F)(F)F)cc(C(F)(F)F)c2)c1 [Compound 43, (S)-4-Methyl-2-(3,5,4″-tris-trifluoromethyl-[1,1′;3′,1″]terphenyl-5′-yl)-pentanoic acid] | 40%
23 | CC(C)C[C@@H](C(=O)O)c1cc(-c2ccc(C(F)(F)F)cc2)cc(-c2ccc(Cl)c(F)c2)c1 [Compound 47, (R)-2-(4-Chloro-3-fluoro-4″-trifluoromethyl-[1,1′;3′,1″]terphenyl-5′-yl)-4-methyl-pentanoic acid] | 45%
24 | CC(C)C[C@@H](C(=O)O)c1cc(-c2ccc(OC(F)(F)F)cc2)cc(-c2ccc(C(F)(F)F)cc2)c1 [Compound 51, (R)-4-Methyl-2-(4-trifluoromethoxy-4″-trifluoromethyl-[1,1′;3′,1″]terphenyl-5′-yl)-pentanoic acid] | 50%
25 | CC(C)C[C@H](C(=O)O)c1cc(-c2ccc(OC(F)(F)F)cc2)cc(-c2ccc(C(F)(F)F)cc2)c1 [Compound 52, (S)-4-Methyl-2-(4-trifluoromethoxy-4″-trifluoromethyl-[1,1′;3′,1″]terphenyl-5′-yl)-pentanoic acid] | 48%

system: Aβ42; assay: In vivo Aβ42 lowering, rat; settings: oral dose 30 mpk at 4 hr time point
From the text: as §1, §2, §3, §4, §5, §6, §7, §8, §9, §10, §11

Row | Compound | Rat Efficacy % Lowering Aβ 42
26 | CC(C)CC(C(=O)O)c1cc(-c2ccc(C(F)(F)F)cc2)cc(-c2ccc(C(F)(F)F)cc2)c1 (centres unmarked) [Compound 5, 2-(4,4″-Bis-trifluoromethyl-[1,1′;3′,1″]terphenyl-5′-yl)-4-methyl-pentanoic acid] | 29%
